Data published in PubChem BioAssay AID248 (DTP/NCI, 2004).
Where “and” joins values, the source holds several entries; their conditions need not be identical. Equal values may be shown once. Toxic doses and inconclusive results are not listed. Rule as the data show it: active = T/C of 150% or more; inactive = T/C below 125%.

System: L1210 leukemia ip in BDF1 mice, survival T/C
Assay: NCI In Vivo Anticancer Drug Screen. Data for tumor model L1210 Leukemia (intraperitoneal) in B6D2F1 (BDF1) mice
Details: endpoint: mean survival time, higher = longer survival
Summary of the method: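 Value reflects the ratio of survival in compound-treated mice to survival in vehicle-treated controls, with both groups carrying the same transplanted tumor.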

[1] = dose: 100.0 mg/kg/injection, schedule: Q01DX001 (ip), vehicle: Klucel (hydroxypropylcellulose) (HPC)
[2] = dose: 100.0 mg/kg/injection, schedule: Q01DX009 (ip), vehicle: Klucel (hydroxypropylcellulose) (HPC)
[3] = dose: 100.0 mg/kg/injection, schedule: Q04DX003 (ip), vehicle: Klucel (hydroxypropylcellulose) (HPC)
[4] = dose: 200.0 mg/kg/injection, schedule: Q04DX003 (ip), vehicle: Klucel (hydroxypropylcellulose) (HPC)
[5] = dose: 400.0 mg/kg/injection, schedule: Q04DX003 (ip), vehicle: Klucel (hydroxypropylcellulose) (HPC)
[6] = dose: 200.0 mg/kg/injection, schedule: Q01DX001 (ip), vehicle: Klucel (hydroxypropylcellulose) (HPC)
[7] = dose: 400.0 mg/kg/injection, schedule: Q01DX001 (ip), vehicle: Klucel (hydroxypropylcellulose) (HPC)
[8] = dose: 100.0 mg/kg/injection, schedule: Q04DX003 (ip), vehicle: saline
[9] = dose: 200.0 mg/kg/injection, schedule: Q04DX003 (ip), vehicle: saline
[10] = dose: 12.5 mg/kg/injection, schedule: Q01DX009 (ip), vehicle: saline
[11] = dose: 25.0 mg/kg/injection, schedule: Q01DX009 (ip), vehicle: saline
[12] = dose: 100.0 mg/kg/injection, schedule: Q01DX001 (ip), vehicle: other
[13] = dose: 200.0 mg/kg/injection, schedule: Q01DX001 (ip), vehicle: other
[14] = dose: 400.0 mg/kg/injection, schedule: Q01DX001 (ip), vehicle: other
[15] = dose: 50.0 mg/kg/injection, schedule: Q01DX009 (ip), vehicle: saline
[16] = dose: 100.0 mg/kg/injection, schedule: Q01DX001 (ip), vehicle: saline
[17] = dose: 100.0 mg/kg/injection, schedule: Q01DX009 (ip), vehicle: saline with Tween-80
[18] = dose: 200.0 mg/kg/injection, schedule: Q01DX001 (ip), vehicle: saline
[19] = dose: 200.0 mg/kg/injection, schedule: Q01DX009 (ip), vehicle: saline with Tween-80

Measured: T/C

COC(=O)C(Cc1ccc(C)cc1)N1CCCCC1 (stereo not drawn)
inactive: dose: 100.0 mg/kg/injection, schedule: Q01DX001 (ip), vehicle: carboxymethylcellulose (CMC) 101 % of control | dose: 200.0 mg/kg/injection, schedule: Q01DX001 (ip), vehicle: carboxymethylcellulose (CMC) 101 % of control | dose: 400.0 mg/kg/injection, schedule: Q01DX001 (ip), vehicle: carboxymethylcellulose (CMC) 98 % of control

NNC(=O)c1ccc(Cl)cc1Nc1ccc(Cl)cc1
inactive: dose: 25.0 mg/kg/injection, schedule: Q01DX009 (ip), vehicle: Klucel (hydroxypropylcellulose) (HPC) 93 % of control | dose: 50.0 mg/kg/injection, schedule: Q01DX009 (ip), vehicle: Klucel (hydroxypropylcellulose) (HPC) 95 % of control | [1] 97 % of control | [2] 91 % of control

CNC(=O)Oc1ccc2ccccc2c1[N+](=O)[O-]
inactive: dose: 75.0 mg/kg/injection, schedule: Q01DX001 (ip), vehicle: other 101 % of control

O=P(c1ccccc1)(c1ccccc1)N1CCCCC1
inactive: [3] 101 % of control | [4] 96 % of control | [5] 93 % of control

CCCCCCCCCCCCCCC1=NCCN1
inactive: dose: 5.0 mg/kg/injection, schedule: Q01DX009 (ip), vehicle: saline 98 % of control | dose: 10.0 mg/kg/injection, schedule: Q01DX001 (ip), vehicle: saline 94 % of control | dose: 10.0 mg/kg/injection, schedule: Q01DX009 (ip), vehicle: saline 104 % of control | dose: 10.0 mg/kg/injection, schedule: Q04DX003 (ip), vehicle: saline 92 % of control | dose: 20.0 mg/kg/injection, schedule: Q01DX001 (ip), vehicle: saline 103 % of control | dose: 20.0 mg/kg/injection, schedule: Q01DX009 (ip), vehicle: saline 106 % of control | dose: 20.0 mg/kg/injection, schedule: Q04DX003 (ip), vehicle: saline 101 % of control | dose: 40.0 mg/kg/injection, schedule: Q01DX001 (ip), vehicle: saline 98 % of control | dose: 40.0 mg/kg/injection, schedule: Q04DX003 (ip), vehicle: saline 92 % of control

Cc1cccc(Cl)c1NC(=O)COc1ccc(Cl)cc1
inactive: [2] 102 % of control | dose: 200.0 mg/kg/injection, schedule: Q01DX009 (ip), vehicle: Klucel (hydroxypropylcellulose) (HPC) 89 % of control | dose: 400.0 mg/kg/injection, schedule: Q01DX009 (ip), vehicle: Klucel (hydroxypropylcellulose) (HPC) 93 % of control

C[N+]1(C)C2CCCC1CCC2
inactive: dose: 3.12 mg/kg/injection, schedule: Q04DX002 (ip), vehicle: Klucel (hydroxypropylcellulose) (HPC) 93 % of control | dose: 6.25 mg/kg/injection, schedule: Q04DX002 (ip), vehicle: Klucel (hydroxypropylcellulose) (HPC) 104 % of control | dose: 12.5 mg/kg/injection, schedule: Q04DX002 (ip), vehicle: Klucel (hydroxypropylcellulose) (HPC) 90 % of control

O=C1O[C@@H]2[C@@H](I)[C@@H]3C[C@@H]2[C@@H]1C3
inactive: dose: 5.0 mg/kg/injection, schedule: Q01DX001 (ip), vehicle: carboxymethylcellulose (CMC) 91 % of control | dose: 10.0 mg/kg/injection, schedule: Q01DX001 (ip), vehicle: carboxymethylcellulose (CMC) 93 % of control | dose: 20.0 mg/kg/injection, schedule: Q01DX001 (ip), vehicle: carboxymethylcellulose (CMC) 94 % of control | dose: 40.0 mg/kg/injection, schedule: Q01DX001 (ip), vehicle: carboxymethylcellulose (CMC) 91 % of control | dose: 80.0 mg/kg/injection, schedule: Q01DX001 (ip), vehicle: carboxymethylcellulose (CMC) 93 % of control

CC(=O)Nc1nc(C(=O)O)c(CCCCc2ccccc2)c(=O)[nH]1
inactive: [1] 95 % of control | [6] 98 % of control | [7] 101 % of control

COc1ccc2c(O)c(Oc3ccccc3)c(=O)oc2c1
inactive: [8] 87 % of control | [9] 97 % of control

OC(CF)CCl (stereo not drawn)
inactive: dose: 6.25 mg/kg/injection, schedule: Q01DX009 (ip), vehicle: saline 89 % of control | [10] 96 % of control | [11] 103 % of control

COc1ccc(CC/C(=N/O)c2ccccc2)cc1
inactive: dose: 50.0 mg/kg/injection, schedule: Q01DX001 (ip), vehicle: other 94 % of control | [12] 100 % of control | [13] 90 % of control | [14] 102 % of control

O=C(Nc1ccc(O)cc1)c1ccc(C(=O)Nc2ccc(O)cc2)cc1
inactive: dose: 15.0 mg/kg/injection, schedule: Q01DX Z (ip), vehicle: methylcellulose (MC) 112 % of control | dose: 30.0 mg/kg/injection, schedule: Q01DX Z (ip), vehicle: methylcellulose (MC) 93 % of control | dose: 60.0 mg/kg/injection, schedule: Q01DX Z (ip), vehicle: methylcellulose (MC) 98 % of control | dose: 120.0 mg/kg/injection, schedule: Q01DX Z (ip), vehicle: methylcellulose (MC) 98 % of control

CCN(CC)CCNCCN
inactive: [10] 107 % of control | [11] 111 % of control | [15] 101 % of control and 102 % of control | [8] 94 % of control | [9] 96 % of control

CN(C)C(=O)NC1CCc2ccccc21 (stereo not drawn)
inactive: [12] 95 % of control | [13] 93 % of control | [14] 93 % of control

CCOC(=O)C(C(=O)OCC)C1c2ccccc2C(=O)N(CCN(C)C)c2ccccc21 (stereo not drawn)
inactive: [11] 96 % of control | [15] 99 % of control | dose: 100.0 mg/kg/injection, schedule: Q01DX009 (ip), vehicle: saline 98 % of control

COC(CSc1ncc2cnccn12)OC
inactive: dose: 100.0 mg/kg/injection, schedule: Q01DX009 (ip), vehicle: water 102 % of control | dose: 100.0 mg/kg/injection, schedule: Q04DX003 (ip), vehicle: water 103 % of control | dose: 200.0 mg/kg/injection, schedule: Q01DX009 (ip), vehicle: water 100 % of control | dose: 200.0 mg/kg/injection, schedule: Q04DX003 (ip), vehicle: water 106 % of control | dose: 400.0 mg/kg/injection, schedule: Q01DX009 (ip), vehicle: water 100 % of control | dose: 400.0 mg/kg/injection, schedule: Q04DX003 (ip), vehicle: water 108 % of control

O=c1[nH]c(Cc2ccccc2)c(Br)c(=O)[nH]1
inactive: dose: 50.0 mg/kg/injection, schedule: Q01DX001 (ip), vehicle: saline 102 % of control | [16] 100 % of control | [17] 104 % of control | dose: 100.0 mg/kg/injection, schedule: Q## X009 (ip), vehicle: saline with Tween-80 104 % of control | [18] 100 % of control | [19] 92 % of control | dose: 200.0 mg/kg/injection, schedule: Q## X009 (ip), vehicle: saline with Tween-80 92 % of control | dose: 400.0 mg/kg/injection, schedule: Q01DX001 (ip), vehicle: saline 94 % of control

O=C(NC(CCl)c1ccccc1)c1ccc([N+](=O)[O-])cc1 (stereo not drawn)
inactive: dose: 75.0 mg/kg/injection, schedule: Q04DX003 (ip), vehicle: Klucel (hydroxypropylcellulose) (HPC) 100 % of control | [1] 98 % of control | dose: 150.0 mg/kg/injection, schedule: Q04DX003 (ip), vehicle: Klucel (hydroxypropylcellulose) (HPC) 103 % of control | [6] 104 % of control | dose: 300.0 mg/kg/injection, schedule: Q04DX003 (ip), vehicle: Klucel (hydroxypropylcellulose) (HPC) 97 % of control | [7] 104 % of control

c1ccc2c(c1)CCCc1cn[nH]c1-2
inactive: [16] 98 % of control | [18] 95 % of control

CCCCC1(C2CCCC2)NC(C)(C)CC(C)O1 (stereo not drawn)
inactive: [17] 95 % of control | [19] 104 % of control

O=C(NO)c1cc(=O)[nH]o1
inactive: dose: 100.0 mg/kg/injection, schedule: Q04DX003 (ip), vehicle: saline with Tween-80 95 % of control | dose: 200.0 mg/kg/injection, schedule: Q04DX003 (ip), vehicle: saline with Tween-80 95 % of control | dose: 400.0 mg/kg/injection, schedule: Q04DX003 (ip), vehicle: saline with Tween-80 95 % of control

O=C(c1ccccc1)c1nnc(C(=O)c2ccccc2)nn1
inactive: [3] 102 % of control | [4] 100 % of control | [5] 93 % of control
